Tests used:
Assay in all cases: relative viability (nuclei count vs DMSO), 5 days (fraction); higher = more cells survive
NCI-H1437 = system: NCI-H1437
How it was run: (§1)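 Relative viability equals treated-well nuclei counts divided by vehicle-well nuclei counts. Counts came from 4× images of lung cancer cell lines grown in 1536-well plates for 5 days after pin-tool dosing on the day after seeding. Dosing used one drug alone or a fixed anchor-drug dose plus five library-drug doses (not always all listed) in √10 steps, and values are medians of duplicate plates.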

RERF-LC-KJ = system: RERF-LC-KJ
How it was run: as §1

NCI-H1793 = system: NCI-H1793
How it was run: as §1

HCC-44 = system: HCC-44
How it was run: as §1

NCI-H1395 = system: NCI-H1395
How it was run: as §1

NCI-H322M = system: NCI-H322M
How it was run: as §1

BEN = system: BEN
How it was run: as §1

NCI-H1355 = system: NCI-H1355
How it was run: as §1

CAL-12T = system: CAL-12T
How it was run: as §1

LCLC-97TM1 = system: LCLC-97TM1
How it was run: as §1

NCI-H647 = system: NCI-H647
How it was run: as §1

NCI-H2087 = system: NCI-H2087
How it was run: as §1

NCI-H1650 = system: NCI-H1650
How it was run: as §1

NCI-H2405 = system: NCI-H2405
How it was run: as §1

201T = system: 201T
How it was run: as §1

NCI-H3122 = system: NCI-H3122
How it was run: as §1

NCI-H727 = system: NCI-H727
How it was run: as §1

NCI-H2228 = system: NCI-H2228
How it was run: as §1

HOP-62 = system: HOP-62
How it was run: as §1

LXF-289 = system: LXF-289
How it was run: as §1

HCC-827 = system: HCC-827
How it was run: as §1

SK-LU-1 = system: SK-LU-1
How it was run: as §1

LCLC-103H = system: LCLC-103H
How it was run: as §1

NCI-H2023 = system: NCI-H2023
How it was run: as §1

SMILES: Clc1ccc(Nc2nnc(Cc3ccncc3)c3ccccc23)cc1 [Vatalanib] + CS(=O)(=O)N1CCN(Cc2cc3nc(-c4cccc5[nH]ncc45)nc(N4CCOCC4)c3s2)CC1 [Pictilisib] (partner 1 µM)
- relative viability (NCI-H1437; first compound 0.04 µM): 0.49
- relative viability (NCI-H1437; first compound 0.1265 µM): 0.456
- relative viability (NCI-H1437; first compound 0.4 µM): 0.518
- relative viability (NCI-H1437; first compound 1.265 µM): 0.432
- relative viability (NCI-H1437; first compound 4 µM): 0.432
- relative viability (RERF-LC-KJ; first compound 0.04 µM): 0.486
- relative viability (RERF-LC-KJ; first compound 0.1265 µM): 0.579
- relative viability (RERF-LC-KJ; first compound 0.4 µM): 0.745
- relative viability (RERF-LC-KJ; first compound 1.265 µM): 0.422
- relative viability (RERF-LC-KJ; first compound 4 µM): 0.481
- relative viability (NCI-H1793; first compound 0.04 µM): 0.218
- relative viability (NCI-H1793; first compound 0.1265 µM): 0.326
- relative viability (NCI-H1793; first compound 0.4 µM): 0.382
- relative viability (NCI-H1793; first compound 1.265 µM): 0.293
- relative viability (NCI-H1793; first compound 4 µM): 0.347
- relative viability (HCC-44; first compound 0.04 µM): 0.704
- relative viability (HCC-44; first compound 0.1265 µM): 0.684
- relative viability (HCC-44; first compound 0.4 µM): 0.63
- relative viability (HCC-44; first compound 1.265 µM): 0.644
- relative viability (HCC-44; first compound 4 µM): 0.613
- relative viability (NCI-H1395; first compound 0.04 µM): 0.814
- relative viability (NCI-H1395; first compound 0.1265 µM): 0.55
- relative viability (NCI-H1395; first compound 0.4 µM): 0.525
- relative viability (NCI-H1395; first compound 1.265 µM): 0.538
- relative viability (NCI-H1395; first compound 4 µM): 0.616
- relative viability (NCI-H322M; first compound 0.04 µM): 0.513
- relative viability (NCI-H322M; first compound 0.1265 µM): 0.489
- relative viability (NCI-H322M; first compound 0.4 µM): 0.555
- relative viability (NCI-H322M; first compound 1.265 µM): 0.534
- relative viability (NCI-H322M; first compound 4 µM): 0.553
- relative viability (BEN; first compound 0.04 µM): 0.552
- relative viability (BEN; first compound 0.1265 µM): 0.495
- relative viability (BEN; first compound 0.4 µM): 0.529
- relative viability (BEN; first compound 1.265 µM): 0.555
- relative viability (BEN; first compound 4 µM): 0.65
- relative viability (NCI-H1355; first compound 0.04 µM): 0.391
- relative viability (NCI-H1355; first compound 0.1265 µM): 0.441
- relative viability (NCI-H1355; first compound 0.4 µM): 0.53
- relative viability (NCI-H1355; first compound 1.265 µM): 0.394
- relative viability (NCI-H1355; first compound 4 µM): 0.457
- relative viability (CAL-12T; first compound 0.04 µM): 0.238
- relative viability (CAL-12T; first compound 0.1265 µM): 0.39
- relative viability (CAL-12T; first compound 1.265 µM): 0.446
- relative viability (CAL-12T; first compound 4 µM): 0.463
- relative viability (LCLC-97TM1; first compound 0.04 µM): 0.136
- relative viability (LCLC-97TM1; first compound 0.1265 µM): 0.243
- relative viability (LCLC-97TM1; first compound 0.4 µM): 0.187
- relative viability (LCLC-97TM1; first compound 1.265 µM): 0.19
- relative viability (LCLC-97TM1; first compound 4 µM): 0.195
- relative viability (NCI-H647; first compound 0.04 µM): 0.387
- relative viability (NCI-H647; first compound 0.1265 µM): 0.42
- relative viability (NCI-H647; first compound 1.265 µM): 0.385
- relative viability (NCI-H647; first compound 4 µM): 0.4
- relative viability (NCI-H2087; first compound 0.04 µM): 0.871
- relative viability (NCI-H2087; first compound 0.1265 µM): 0.752
- relative viability (NCI-H2087; first compound 0.4 µM): 1.15
- relative viability (NCI-H2087; first compound 1.265 µM): 0.826
- relative viability (NCI-H2087; first compound 4 µM): 0.931
- relative viability (NCI-H1650; first compound 0.04 µM): 0.612
- relative viability (NCI-H1650; first compound 0.1265 µM): 0.556
- relative viability (NCI-H1650; first compound 0.4 µM): 0.578
- relative viability (NCI-H1650; first compound 1.265 µM): 0.55
- relative viability (NCI-H1650; first compound 4 µM): 0.592
- relative viability (NCI-H2405; first compound 0.04 µM): 0.506
- relative viability (NCI-H2405; first compound 0.1265 µM): 0.429
- relative viability (NCI-H2405; first compound 1.265 µM): 0.352
- relative viability (NCI-H2405; first compound 4 µM): 0.493
- relative viability (201T; first compound 0.04 µM): 0.694
- relative viability (201T; first compound 0.1265 µM): 0.667
- relative viability (201T; first compound 0.4 µM): 0.706
- relative viability (201T; first compound 1.265 µM): 0.663
- relative viability (201T; first compound 4 µM): 0.722
- relative viability (NCI-H3122; first compound 0.04 µM): 0.66
- relative viability (NCI-H3122; first compound 0.1265 µM): 0.534
- relative viability (NCI-H3122; first compound 0.4 µM): 0.646
- relative viability (NCI-H3122; first compound 1.265 µM): 0.573
- relative viability (NCI-H3122; first compound 4 µM): 0.593
- relative viability (NCI-H727; first compound 0.04 µM): 0.421
- relative viability (NCI-H727; first compound 0.1265 µM): 0.355
- relative viability (NCI-H727; first compound 0.4 µM): 0.359
- relative viability (NCI-H727; first compound 1.265 µM): 0.399
- relative viability (NCI-H727; first compound 4 µM): 0.433
- relative viability (NCI-H2228; first compound 0.04 µM): 0.313
- relative viability (NCI-H2228; first compound 0.1265 µM): 0.432
- relative viability (NCI-H2228; first compound 0.4 µM): 0.317
- relative viability (NCI-H2228; first compound 1.265 µM): 0.379
- relative viability (NCI-H2228; first compound 4 µM): 0.432
- relative viability (HOP-62; first compound 0.04 µM): 0.758
- relative viability (HOP-62; first compound 0.4 µM): 0.632
- relative viability (HOP-62; first compound 1.265 µM): 0.702
- relative viability (HOP-62; first compound 4 µM): 0.713
- relative viability (LXF-289; first compound 0.04 µM): 0.894
- relative viability (LXF-289; first compound 0.1265 µM): 0.737
- relative viability (LXF-289; first compound 0.4 µM): 0.748
- relative viability (LXF-289; first compound 1.265 µM): 0.702
- relative viability (LXF-289; first compound 4 µM): 0.747
- relative viability (HCC-827; first compound 0.04 µM): 0.974
- relative viability (HCC-827; first compound 0.1265 µM): 0.872
- relative viability (HCC-827; first compound 0.4 µM): 0.925
- relative viability (HCC-827; first compound 1.265 µM): 1.06
- relative viability (HCC-827; first compound 4 µM): 0.863
- relative viability (SK-LU-1; first compound 0.04 µM): 0.596
- relative viability (SK-LU-1; first compound 0.1265 µM): 0.581
- relative viability (SK-LU-1; first compound 0.4 µM): 0.523
- relative viability (SK-LU-1; first compound 1.265 µM): 0.535
- relative viability (SK-LU-1; first compound 4 µM): 0.527
- relative viability (LCLC-103H; first compound 0.04 µM): 0.6
- relative viability (LCLC-103H; first compound 0.1265 µM): 0.606
- relative viability (LCLC-103H; first compound 0.4 µM): 0.55
- relative viability (LCLC-103H; first compound 1.265 µM): 0.596
- relative viability (LCLC-103H; first compound 4 µM): 0.714
- relative viability (NCI-H2023; first compound 0.04 µM): 0.252
- relative viability (NCI-H2023; first compound 0.1265 µM): 0.255
- relative viability (NCI-H2023; first compound 0.4 µM): 0.318
- relative viability (NCI-H2023; first compound 1.265 µM): 0.218
- relative viability (NCI-H2023; first compound 4 µM): 0.226
